Source: patent US7074801B1, “Nitrogen-containing condensed cyclic compound having a pyrazolyl group as a substituent group and pharmaceutical composition thereof” (Eisai Co., Ltd., priority 2001, dated 2006)
Structures can show the parent of a compound that is named as a salt.

System: STAT6
Test: Inhibitory test on STAT6 activation: IL-4-induced alkali phosphatase STAT6 reporter in 293 cells stably expressing the STAT6 gene and STAT6 reporter gene
Format: cell-based
Details: HEK293; Table 1; 1 ng/ml human recombinant IL-4, 16 hours, 293 cells with STAT6 reporter; read-out: Inhibitory activity IC50 (concentration at which the alkali phosphatase activity induced by IL-4 was inhibited by 50%)
Protocol: The inhibitory action of the present compound on activation of STAT6 was evaluated according to the following experiments.
1) Construction of a STAT6 Reporter Gene
An oligonucleotide of SEQ ID NO:1 in which three STAT6-binding regions on a human immunoglobulin germline E gene promoter had been linked was mixed with its complementary chain, thermally denatured and annealed, and 5′- and 3′-ends thereof were cleaved with restriction enzymes Kpn I (Code No. 1068A, Takara Shuzo) and Xba I (Code No. 1093A, Takara Shuzo) respectively, and the resulting fragment was cloned into a Kpn I/Xba I site of pUG-BGH-PLAP vector (described in Molecular Pharmacology, 49:860–873, 1996). To induce a basic transcriptional factor, a TK promoter region of herpes virus was cloned into an Xba I/Hind III (Code No. 1060A, Takara Shuzo) site of the pUG-BGH-PLAP vector. To obtain a stably expressing cell strain, a neomycin resistance gene (PGK-neo expression cassette) was integrated with an Sal I (Code No. 1080A, Takara Shuzo) of this vector. Cloning of the TK promoter and PGK-neo expression cassette was carried out according to Molecular Pharmacology, 49:860–873, 1996.
The underlined sites are a Kpn I recognition site and Xba I recognition site respectively. 2) Construction of an STAT6 Expression Vector
An oligonucleotide of SEQ ID NO:2 containing an initiation codon of STAT6 gene and an oligonucleotide of SEQ ID NO:3 containing a stop codon were used, and total RNA was prepared from human peripheral blood cells by using RNeasy Mini kit (Code No. 74104, OIAGEN). Then, cDNA was prepared by reverse transcription reaction using Takara RNA LA PCR kit (Code No. RR012A, Takara Shuzo) and then subjected to PCR reaction with primers of SEQ ID NOS:2 and 3, to amplify the STAT6 gene. • (SEQ ID NO:2) 5′-[…]-3′ The underlined site is an EcoR I recognition site. • (SEQ ID NO:3) 5′-[…]-3′ The underlined site is an Xho I recognition site.
The PCR product was digested with EcoR I (Code No. 1040A, Takara Shuzo) and Xho I (1094A, Takara Shuzo), and the digested fragment was isolated on an agarose gel. The isolated fragment was integrated into a vector fragment obtained by digesting pcDNA3.1 (+) (Code No. U790-20, Invitrogen) vector with EcoRI/Xho I.
3) Introduction of the Gene and Preparation of a Stably Expressing Cell Strain
Human fetal kidney-derived 293 cells (American Type Culture Collection), 3.0×10^5 cells, were spread on a Falcon tissue culture 6-well plate (Code No. 35-3046, Becton Dickinson) and cultured overnight. 1.5 μg of the prepared STAT6 reporter gene, 1.5 μg of the STAT6 gene and 20 μl of lipofectamine (Code No. 18324-012, GIBCO BRL) were mixed in 0.3 ml OPTI-MEM medium (Code No. 31985-070) and left at room temperature for 20 minutes. Thereafter, 1.2 ml OPTI-MEM medium was further added to the cells washed with OPTI-MEM medium not containing fetal bovine serum, and the cells were cultured for 2 hours. 1.5 ml medium containing fetal bovine serum was added thereto, and the cells were cultured for additional 19 hours. The medium was exchanged with a fresh one, and Geneticin (Code No. G-5013, SIGMA) was added at a concentration of 1 mg/ml, and the cells were cultured, and chemical-resistant cells were selected. The resulting chemical-resistant cells were floated in a medium containing 1 mg/ml Geneticin, then spread at a density of 0.5 cell/well on a 96-well microplate (Code No. 35-3072, Becton Dickinson) and cloned to give a clone expressing alkali phosphatase in response to IL-4.
4) Inhibitory Test on STAT6 Activation
The cells stably expressing the STAT6 gene and STAT6 reporter gene and expressing alkali phosphatase in response to IL-4 were spread at a density of 5000 cells/180 μl/well on a 96-well microplate (Code No. 35-3072, Becton Dickinson) and cultured overnight. […]

SMILES | IC50
CSc1nnc(-c2cnc3ccc(-c4c[nH]nc4-c4ccc(F)cc4)cn23)o1 [Example 555, 6-[3-(4-Fluorophenyl)-1H-pyrazol-4-yl]-3-(5-methylsulfanyl[1,3,4]oxadiazol-2-yl)imidazo[1,2-a]pyridine] | < 10 nM
Fc1ccc(-c2n[nH]cc2-c2ccc3ncc(-c4nnc(C5CC5)s4)n3c2)c(F)c1 [Example 556, 3-(5-Cyclopropyl[1,3,4]thiadiazol-2-yl)6-[3-(2,4-difluorophenyl)-1H-pyrazol-4-yl]imidazo[1,2-a]pyridine] | < 10 nM
Fc1ccc(-c2n[nH]cc2-c2ccc3ncc(-c4nnc(C5CC5)o4)n3c2)c(F)c1 [Example 557, 3-(5-Cyclopropyl[1,3,4]oxadiazol-2-yl)6-[3-(2,4-difluorophenyl)-1H-pyrazol-4-yl]imidazo[1,2-a]pyridine] | < 10 nM
CNc1nnc(-c2cnc3ccc(-c4c[nH]nc4-c4ccc(F)cc4F)cn23)o1 [Example 561] | < 10 nM
COc1nnc(-c2cnc3ccc(-c4c[nH]nc4-c4ccc(F)cc4F)cn23)s1 [Example 562, 6-[3-(2,4-Fluorophenyl)-1H-pyrazol-4-yl]-3-(5-methoxy[1,3,4]thiadiazol-2-yl)imidazo[1,2-a]pyridine] | < 10 nM
Fc1ccc(-c2n[nH]cc2-c2ccc3ncc(-c4noc(C5CC5)n4)n3c2)c(F)c1 [Example 576, 3-(5-Cyclopropyl-[1,2,4]oxadiazol-3-yl)-6-[3-(2,4-difluorophenyl)-1H-4-pyrazolyl]-imidazo[1,2-a]pyridine trihydrochloride] | < 10 nM
COc1ccc(-c2n[nH]cc2-c2ccc3ncc(-c4noc(C5CC5)n4)n3c2)c(F)c1 [Example 580, 3-(5-Cyclopropyl-[1,2,4]oxadiazol-3-yl)-6-[3-(2-fluoro-4-methoxyphenyl)-1H-4-pyrazolyl]-imidazo[1,2-a]pyridine trihydrochloride] | < 10 nM
Fc1ccccc1-c1n[nH]cc1-c1ccc2ncc(-c3noc(C4CC4)n3)n2c1 [Example 583, 3-(5-Cyclopropyl-[1,2,4]oxadiazol-3-yl)-6-[3-(2-fluorophenyl)-1H-4-pyrazolyl]-imidazo[1,2-a]pyridine trihydrochloride] | < 10 nM
Fc1cc(OC2CCCC2)ccc1-c1n[nH]cc1-c1ccc2ncc(-c3noc(C4CC4)n3)n2c1 [Example 584, 6-[3-(4-Cyclopentyloxy-2-fluorophenyl)-1H-4-pyrazolyl]-3-(5-cyclopropyl-[1,2,4]oxadiazol-3-yl)-imidazo[1,2-a]-pyridine trihydrochloride] | < 10 nM
Fc1ccc(-c2n[nH]cc2-c2ccc3ncc(-c4noc(C(F)F)n4)n3c2)c(F)c1 [Example 589, 6-[3-(2,4-Difluorophenyl)-1H-4-pyrazolyl]-3-(5-difluoromethyl-[1,2,4]oxadiazol-3-yl)-imidazo[1,2-a]-pyridine trihydrochloride] | < 10 nM
CC(C)=Cc1nc(-c2cnc3ccc(-c4c[nH]nc4-c4ccccc4F)cn23)no1 [Example 592] | < 10 nM
O=C1CCCN1Cc1nc(-c2cnc3ccc(-c4c[nH]nc4-c4ccccc4F)cn23)no1 [Example 596, 1-(3-{6-[3-(2-Fluorophenyl)-1H-4-pyrazolyl]-imidazo[1,2-a]-pyridin-3-yl}-[1,2,4]oxadiazol-5-ylmethyl)-pyrrolidin-2-one di-trifluoroacetate] | < 10 nM
CN(C)Cc1nc(-c2cnc3ccc(-c4c[nH]nc4-c4ccccc4F)cn23)no1 [Example 598, (3-{6-[3-(2-Fluorophenyl)-1H-4-pyrazolyl]-imidazo[1,2-a]-pyridin-3-yl}-[1,2,4]oxadiazol-5-ylmethyl)dimethylamine tri-trifluoroacetate] | < 10 nM
Fc1cccc(F)c1-c1n[nH]cc1-c1ccc2ncc(-c3noc(CCC(F)(F)F)n3)n2c1 [Example 601, 3-[5-(3,3,3-Trifluoropropyl)-[1,2,4]oxadiazol-3-yl]-6-[3-(2,6-difluorophenyl)-1H-4-pyrazolyl]-imidazo[1,2-a]pyridine] | < 10 nM
CC(C)c1nc(-c2cnc3ccc(-c4c[nH]nc4-c4ccccc4F)cn23)no1 [Example 605, 6-[3-(2-Fluorophenyl)-1H-4-pyrazolyl]-3-(5-isopropyl-[1,2,4]oxadiazol-3-yl)-imidazo[1,2-a]pyridine trihydrochloride] | < 10 nM
COc1ccc(-c2cnc3ccc(-c4c[nH]nc4-c4ccc(F)cc4)cn23)cc1F [Example 622, 3-(3-Fluoro-4-methoxyphenyl)-6-[3-(4-fluorophenyl)-1H-4-pyrazolyl]imidazo[1,2-a]pyridine hydrochloride] | < 10 nM
O=C1CCc2cc(-c3cnc4ccc(-c5c[nH]nc5-c5ccc(F)cc5)cn34)ccc21 [Example 623, 5-{6-[3-(4-Fluorophenyl)-1H-4-pyrazolyl]imidazo[1,2-a]pyridin-3-yl}-1-indanone] | < 10 nM
N#CCCCS(=O)(=O)c1ccc(-c2cnc3ccc(-c4c[nH]nc4-c4ccc(F)cc4)cn23)s1 [Example 626, 4-[(5-{6-[3-(4-Fluorophenyl)-1H-4-pyrazolyl]imidazo[1,2-a]pyridin-3-yl}-2-thienyl)sulfonyl]butane nitrile hydrochloride] | < 10 nM
N#CCC[C@H](O)c1nc2ccc(-c3cnc4ccc(-c5c[nH]nc5-c5ccc(F)cc5)cn34)cc2s1 [Example 628, (4S)-4-(6-{6-[3-(4-Fluorophenyl)-1H-4-pyrazolyl]imidazo-[1,2-a]pyridin-3-yl)-1,3-benzothiazol-2-yl)-4-hydroxybutane nitrile dihydrochloride] | < 10 nM
Cc1csc(NC(=O)c2ccc(-c3cnc4ccc(-c5cn[nH]c5)cn34)cc2)n1 [Example 629, N1-(4-Methyl-1,3-thiazol-2-yl)-4-[6-(1H-4-pyrazolyl)-imidazo[1,2-a]pyridin-3-yl]benzamide dihydrochloride] | < 10 nM
Cc1n[nH]cc1-c1ccc2ncc(-c3ccc(S(=O)(=O)N(C)c4ccc(Cl)cc4)cc3)n2c1 [Example 632, N1-(4-Chlorophenyl)-N1-methyl-4-[6-(3-methyl-1H-4-pyrazolyl)imidazo[1,2-a]pyridin-3-yl]-1-benzene sulfonamide] | 10 to 100 nM
Cc1n[nH]cc1-c1ccc2ncc(-c3ccc(C(=O)NN4CCCCC4)c(F)c3)n2c1 [Example 644, N1-Piperidino-2-fluoro-4-[6-(3-methyl-1H-4-pyrazolyl)-imidazo[1,2-a]pyridin-3-yl] benzamide dihydrochloride] | < 10 nM
Cc1n[nH]cc1-c1ccc2ncc(-c3ccc(C(=O)NCCc4ccccn4)c(F)c3)n2c1 [Example 648, N1-[2-(2-Pyridyl)ethyl]-2-fluoro-4-[6-(3-methyl-1H-4-pyrazolyl)imidazo[1,2-a]pyridin-3-yl] benzamide] | 10 to 100 nM
O=C(Nc1nc(C2CC2)cs1)c1ccc(-c2cnc3ccc(-c4cn[nH]c4)cn23)cc1F [Example 652, N1-(4-Cyclopropyl-1,3-thiazol-2-yl)-2-fluoro-4-[6-(1H-4-pyrazolyl)imidazo[1,2-a]pyridin-3-yl]benzamide dihydrochloride] | < 10 nM
Cc1cnc(NC(=O)c2ccc(-c3cnc4ccc(-c5cn[nH]c5)cn34)nc2)s1 [Example 655, N3-(5-Methyl-1,3-thiazol-2-yl)-6-[6-(1H-4-pyrazolyl)-imidazo[1,2-a]pyridin-3-yl]nicotinic acid amide trihydrochloride] | 10 to 100 nM
